Source: patent US5643784A, “Indan derivatives” (H, Lundbeck A/S, priority 1990, dated 1997)

Tests used:
5-HT2 receptors = molecular target: T1, 5-HT2 receptors (Rattus norvegicus, UniProt P14842); test: Inhibition of 3H-ketanserin binding to 5-HT2 receptors in rat cortex in vitro; conditions: 3H-Ketanserin 0.5 nM, rat cortex, 37° C., 30 min; read-out: Receptor Binding; IC50 5-HT2 3H-Ket
T1 construct: cortical tissue is dissected and weighed; from tissue; host or cells: cortex of male Wistar rats, crude membranes
T1 sequence (P14842 whole entry): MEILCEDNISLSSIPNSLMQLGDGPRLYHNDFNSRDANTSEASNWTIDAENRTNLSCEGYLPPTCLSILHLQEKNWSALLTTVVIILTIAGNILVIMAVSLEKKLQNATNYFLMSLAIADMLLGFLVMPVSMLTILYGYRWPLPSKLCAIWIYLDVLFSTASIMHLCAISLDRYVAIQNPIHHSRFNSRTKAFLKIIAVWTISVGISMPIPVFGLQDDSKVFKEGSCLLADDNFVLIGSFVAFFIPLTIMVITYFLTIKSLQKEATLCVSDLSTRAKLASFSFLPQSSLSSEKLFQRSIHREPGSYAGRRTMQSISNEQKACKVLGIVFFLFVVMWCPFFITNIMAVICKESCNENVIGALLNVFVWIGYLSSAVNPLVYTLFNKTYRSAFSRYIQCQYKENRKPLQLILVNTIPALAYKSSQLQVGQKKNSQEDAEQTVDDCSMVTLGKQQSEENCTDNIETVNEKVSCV
Method: Method in Hyttel, Pharmacology & Toxicology, 61, 126-129, 1987.
Male Wistar (Mol:Wist) rats (125-250 g) are sacrificed and cortical tissue is dissected and weighed. The tissue is homogenized (Ultra Turrax, 10 sec.) in 10 ml of ice-cold 50 mM tris buffer pH 7.7 (at 25° C.). The centrifuge glassware used in this step has been rinsed by sonication for 10 min. in ethanol. The homogenate is centrifuged twice at 20,000 g for 10 min. at 4° C. with rehomogenization of the pellet in 10 ml ice-cold buffer. The final pellet is homogenized in 500 vol (w/v) ice-cold buffer.
Incubation tubes kept on ice in triplicate receive 100 μl of drug solution in water (or water for total binding) and 2000 μl of tissue suspension (final tissue content corresponds to 4 mg original tissue). […] After incubation for 30 min. the samples are filtered under vacuum (0-50 mBar) through Whatman GF/F filters (25 mm). The tubes are rinsed with 5 ml ice-cold buffer which are then poured on the filters. Thereafter, the filters are washed with 2×5 ml of buffer. The filters are placed in counting vials and 4 ml of appropriate scintillation fluid (e.g. Picofluor™15) are added. After shaking for 1 h and storage 2 hrs in the dark the content of radioactivity is determined by liquid scintillation counting. Specific binding is obtained by subtracting the nonspecific binding in the presence of 1 μM mianserin.
(§1) For determination of the inhibition of binding five concentrations of drugs covering 3 decades are used.
The IC50 value is determined as the concentration at which the binding is 50% of the total binding in control samples minus the nonspecific binding in the presence of 1 μM mianserin.

dopamine D-2 receptors = molecular target: T2, dopamine D-2 receptors (Rattus norvegicus, UniProt P61169); test: Inhibition of 3H-spiperone binding to dopamine D-2 receptors in rat corpus striatum in vitro; conditions: 3H-spiperone 0.5 nM, rat corpus striatum, 37° C., 10 min; read-out: Receptor Binding; IC50 DA D-2 3H-Spi
T2 construct: striatal tissue is dissected and weighed; from tissue; host or cells: corpus striatum of male Wistar rats, crude membranes
T2 sequence (P61169 whole entry): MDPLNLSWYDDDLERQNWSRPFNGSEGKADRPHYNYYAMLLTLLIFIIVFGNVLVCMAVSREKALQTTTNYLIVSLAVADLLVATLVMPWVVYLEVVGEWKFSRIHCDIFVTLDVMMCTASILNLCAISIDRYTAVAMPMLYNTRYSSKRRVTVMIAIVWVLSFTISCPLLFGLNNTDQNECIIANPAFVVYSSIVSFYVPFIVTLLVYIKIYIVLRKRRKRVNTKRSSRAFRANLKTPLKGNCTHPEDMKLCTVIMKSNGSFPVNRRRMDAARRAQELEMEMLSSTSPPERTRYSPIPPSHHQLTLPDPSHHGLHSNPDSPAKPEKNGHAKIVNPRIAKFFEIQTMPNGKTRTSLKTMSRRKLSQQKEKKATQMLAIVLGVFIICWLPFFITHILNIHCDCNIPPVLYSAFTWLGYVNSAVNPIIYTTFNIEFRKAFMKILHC
Method: INHIBITION OF ^3 H-SPIPERONE BINDING TO DOPAMINE D-2 RECEPTORS IN RAT CORPUS STRIATUM IN VITRO
By this method the inhibition by drugs of the binding of ^3 H-spiperone (0.5 nM) to dopamine D-2 receptors in membranes from rat corpus striatum is determined in vitro.
(§2) Male Wistar (Mol:Wistar) rats (125-250 g) are sacrificed and striatal tissue is dissected and weighed. The tissue is homogenized (Ultra Turrax, 10 sec.) in 10 ml of ice-cold 50 mM K-phosphate buffer pH 7.4 (at 25° C.). The homogenate is centrifuged twice at 20,000 g for 10 min. at 4° C. with rehomogenization of the pellet in 10 ml ice-cold buffer. The final pellet is homogenized in 1300 vol (w/v) ice-cold buffer.
Incubation tubes kept on ice in triplicate receive 100 μl of drug solution in water (or water for total binding) and 4000 μl of tissue suspension (final tissue content corresponds to 3.08 mg original tissue). The binding experimental is initiated by addition of 100 μl of ^3 H-spiperone (final concentration 0.5 nM) and by placing the tubes in a 37° C. water bath. After incubation for 10 min. the samples are filtered under vacuum (0-50 mBar) through Whatman GF/F filters (25 mm). The tubes are rinsed with 5 ml ice-cold buffer which are then poured on the filters. Thereafter, the filters are washed with 2×5 ml of buffer. The filters are placed in counting vials and 4 ml of appropriate scintillation fluid (e.g. Picofluor ™15) are added. After shaking for 1 h and storage 2 hrs in the dark the content of radioactivity is determined by liquid scintillation counting. Specific binding is obtained by subtracting the nonspecific binding in the presence of 10 μM of 6,7-ADTN.
as §1
^3 H-Spiperone=[phenyl-4-^3 H]-spiperone from Amersham International plc. England, specific activity 15-25 Ci/mmol.

α1 adrenoceptors = test: Inhibition of 3H-prazosin binding to α1 adrenoceptors in rat brain in vitro; conditions: 3H-Prazosin 0.25 nM, rat brain, 25° C., 20 min; read-out: Receptor Binding; IC50 α1 3H-Praz
Method: INHIBITION OF ^3 H-PRAZOSIN BINDING TO α1 ADRENOCEPTORS IN RAT BRAIN IN VITRO
Method and results in Hyttel & Larsen, J. Neurochem, 44, 1615-1622, 1985; Skarsfeldt & Hyttel, Eur. J. Pharmacol. 125, 323-340, 1986.
as §2, with “(Mol:Wist)” for “(Mol:Wistar)”, “(125-200” for “(125-250”, “brain” for “striatal”, “[…] Tris” for “mM K-phosphate”, “7,7” for “7.4”, “400” for “1300”
Incubation tubes kept on ice in triplicate receive 100 μl of drug solution in water (or water for total binding) and 4000μl of tissue suspension (final tissue content corresponds to 10 mg original tissue). The binding experiment is initiated by addition of 100 μl of ^3 H-Prazosin (final concentration 0.25 nM) and by placing the tubes in a 25° C. water bath. After incubation for 20 min. the samples are filtered under vacuum (0-50 mBar) through Whatman GF/F filters (25 mm). The tubes are rinsed with 5 ml ice-cold buffer which then are poured on the filters. Thereafter, the filters are washed with 5 ml of buffer. The filters are placed in counting vials and 4 ml of appropriate scintillation fluid (e.g. Picofluor™15) are added. After shaking for 1 h and storage 2 hrs in the dark the content of radioactivity is determined by liquid scintillation counting. Specific binding is obtained by subtracting the nonspecific binding in the presence of 1 μM of Prazosin.
as §1
The measured cpm are plotted against drug concentration on semilogarithmic paper and the best fitting S-shaped curve is drawn. The IC50 value is determined as the concentration at which the binding is 50% of the total binding in control samples minus the nonspecific binding in the presence of 1 μM of Prazosin.
^3 H-Prazosin=[furoyl-5-^3 H]-Prazosin from New England Nuclear, specific activity approximately 20 Ci/mmol.

SMILES | IC50 (5-HT2 receptors) [nM] | IC50 (dopamine D-2 receptors) [nM] | IC50 (α1 adrenoceptors) [nM]
Cc1ccc2c(c1)[C@@H](c1ccc(F)cc1)C[C@@H]2N1CCN(CCO)CC1 (relative stereo) [Compound 8, Trans-4-[3-(4-fluorophenyl)-5-methyl-2,3-dihydro-1H-inden-1-yl]-1-piperazine ethanol] | 12 | 1000 | 270
Cc1ccc2c(c1)[C@H](c1ccc(F)cc1)C[C@H]2N1CCN(CCN2CCNC2=O)CC1 (relative stereo) [Compound 9, Trans-1-[2-[4-[3-(4-fluorophenyl)-5-methyl-2,3-dihydro-1H-inden-1-yl]piperazine-1-yl]ethyl]-2-imidazolidinone] | 3.7 | 370 | 220
Fc1ccc([C@@H]2C[C@@H](N3CCNCC3)c3ccc(Cl)cc32)cc1 (relative stereo) [Compound 10, Trans-1-[5-chloro-3-(4-fluorophenyl)-2,3-dihydro-1H-inden-1-yl]piperazine] | 11 | 2500 | 840
CC(C)N1CCN(CCN2CCN([C@@H]3C[C@@H](c4ccc(F)cc4)c4cc(Cl)ccc43)CC2)C1=O (relative stereo) [Compound 11, Trans-1-[2-[4-[5-chloro-3-(4-fluorophenyl)-2,3-dihydro-1H-inden-1-yl]piperazin-1-yl]-ethyl]-3-isopropyl-2-imidazolidinone] | 3.9 | 280 | 260
CC(C)N1CCN(CCN2CCN([C@@H]3C[C@@H](c4ccc(F)cc4)c4cc(C(F)(F)F)ccc43)CC2)C1=O (relative stereo) [Compound 13, Trans-1-[2-[4-[3-(4-fluorophenyl)-5-(trifluoromethyl)-2,3-dihydro-1H-inden-1-yl]piperazin-1-yl]ethyl]-3-isopropyl-2-imidazolidinone] | 3.7 | 510 | 350
O=C1N(CCN2CCN([C@@H]3C[C@@H](c4ccc(F)cc4)c4cc(Cl)ccc43)CC2)CCN1c1ccccc1 (relative stereo) [Compound 17, Trans-1-[2-[4-[5-chloro-3-(4-fluorophenyl)-2,3-dihydro-1H-inden-1-yl]piperazin-1-yl]ethyl]-3-phenyl-2-imidazolidinone] | 44 | 300 | 310
CN1CCN(CCN2CCN([C@@H]3C[C@@H](c4ccc(F)cc4)c4cc(Cl)ccc43)CC2)C1=O (relative stereo) [Compound 18, Trans-1-[2-[4-[5-chloro-3-(4-fluorophenyl)-2,3-dihydro-1H-inden-1-yl]piperazin-1-yl]ethyl]-3-methyl-2-imidazolidinone] | 2.8 | 190 | 600
CCN1CCN(CCN2CCN([C@@H]3C[C@@H](c4ccc(F)cc4)c4cc(Cl)ccc43)CC2)C1=O (relative stereo) [Compound 19, Trans-1-[2-[4-[5-chloro-3-(4-fluorophenyl)-2,3-dihydro-1H-inden-1-yl]piperazin-1-yl]ethyl]-3-ethyl-2-imidazolidinone] | 2.6 | 260 | 240
CC(C)N1CCN(CCN2CCN([C@@H]3C[C@@H](c4ccccc4)c4cc(Cl)ccc43)CC2)C1=O (relative stereo) [Compound 20, Trans-1-[2-[4-[5-chloro-3-phenyl-2,3-dihydro-1H-inden-1-yl]piperazin-1-yl]ethyl]-3-isopropyl-2-imidazolidinone] | 9.9 | 750 | 510
CC(C)N1CCN(CCN2CCN([C@@H]3C[C@@H](c4ccccc4F)c4cc(Cl)ccc43)CC2)C1=O (relative stereo) [Compound 21, Trans-1-[2-[4-[5-chloro-3-(2-fluorophenyl)-2,3-dihydro-1H-inden-1-yl]piperazin-1-yl]ethyl]-3-isopropyl-2-imidazolidinone] | 3.5 | 920 | 670
CSc1ccc2c(c1)[C@H](c1ccc(F)cc1)C[C@H]2N1CCN(CCN2CCNC2=O)CC1 (relative stereo) [Compound 22, Trans-1-[2-[4-[3-(4-fluorophenyl)-5-(methylthio)-2,3-dihydro-1H-inden-1-yl]piperazin-1-yl]ethyl]-2-imidazolidinone] | 3.5 | 1100 | 240
CSc1ccc2c(c1)[C@H](c1ccc(F)cc1)C[C@H]2N1CCN(CCN2CCN(C(C)C)C2=O)CC1 (relative stereo) [Compound 23, Trans-1-[2-[4-[3-(4-fluorophenyl)-5-(methylthio)-2,3-dihydro-1H-inden-1-yl]piperazin-1-yl]ethyl]-3-isopropyl-2-imidazolidinone] | 4 | 720 | 250
CC(C)N1CCN(CCN2CCN([C@@H]3C[C@@H](c4ccc(F)cc4)c4cc(Br)ccc43)CC2)C1=O (relative stereo) [Compound 24, Trans-1-[2-[4-[5-bromo-3-(4-fluorophenyl)-2,3-dihydro-1H-inden-1-yl]piperazin-1-yl]ethyl]-3-isopropyl-2-imidazolidinone] | 6.4 | 240 | 270
Cc1ccc([C@@H]2C[C@@H](N3CCN(CCN4CCN(C(C)C)C4=O)CC3)c3ccc(Cl)cc32)cc1 (relative stereo) [Compound 26, Trans-1-[2-[4-[5-chloro-3-(4-methylphenyl)-2,3-dihydro-1H-inden-1-yl]piperazin-1-yl]ethyl]-3-isopropyl-2-imidazolidinone] | 11 | 450 | 60
CC(C)N1CCN(CCN2CCN([C@@H]3C[C@@H](c4ccc(Cl)cc4)c4cc(Cl)ccc43)CC2)C1=O (relative stereo) [Compound 27, Trans-1-[2-[4-[5-chloro-3-(4-chlorophenyl)-2,3-dihydro-1H-inden-1-yl]piperazin-1-yl]ethyl]-3-isopropyl-2-imidazolidinone] | 15 | 280 | 180
